Data reported in patent US4595677A, “Substituted tetrapeptides” (Ciba-Geigy Corporation, priority 1982, dated 1986).
Non-standard residues stand in square brackets, D forms with d. Residues, ends and D or L forms follow the SMILES beside them. *: point of attachment. Sta = CC(C)C[C@H](N)[C@@H](O)CC(=O)O; Cbz = O=C(OCc1ccccc1)*; Boc = CC(C)(C)OC(=O)*; Lac = C[C@H](O)C(=O)O; βAla = NCCC(=O)O; Sar = CNCC(=O)O

Assay: solubility in water of the isolated powder
Assay type: physicochemical
Details: lyophilised product

water solubility of the amorphous powder | Compound
water-soluble | CC(C)C[C@H](NC(=O)[C@H](Cc1c[nH]cn1)NC(=O)[C@H](Cc1ccccc1)NC(=O)[C@@H]1CCCN1C(=O)[C@H](CCCNC(=N)N)NC(=O)[C@@H](N)CCCNC(=N)N)[C@@H](O)CC(=O)O[C@@H](C)C(=O)N[C@@H](Cc1c[nH]cn1)C(N)=O [Example 23, H-Arg-Arg-Pro-Phe-His-Sta-Lac-His-NH2] (H-RRPFH[Sta][Lac]H-NH2)
readily water-soluble | CC(C)C[C@H](NC(=O)[C@H](Cc1c[nH]cn1)NC(=O)[C@H](Cc1ccccc1)NC(=O)[C@@H]1CCCN1C(=O)[C@H](Cc1c[nH]cn1)NC(=O)[C@@H]1CCCN1)[C@@H](O)CC(=O)N[C@H](C(=O)N[C@@H](Cc1ccc(O)cc1)C(=O)N[C@@H](CCCCN)C(=O)O)C(C)C [Example 1, H-Pro-His-Pro-Phe-His-Sta-Val-Tyr-Lys-OH×AcOH] (H-PHPFH[Sta]VYK-OH)
readily water-soluble | Cbz-RRPFH[Sta][Sar]HK(Boc)-OMe [Example 16]
readily water-soluble | CC(C)C[C@H](NC(=O)[C@H](Cc1c[nH]cn1)NC(=O)[C@H](Cc1ccccc1)NC(=O)[C@@H]1CCCN1C(=O)[C@H](CCCNC(=N)N)NC(=O)[C@@H](N)CCCNC(=N)N)[C@@H](O)CC(=O)N(C)CC(=O)N[C@@H](Cc1c[nH]cn1)C(=O)N[C@@H](CCCCN)C(=O)O [Example 19, H-Arg-Arg-Pro-Phe-His-Sta-Sar-His-Lys-OH] (H-RRPFH[Sta][Sar]HK-OH)
water-soluble | Cbz-RRPFH[Sta][βAla]H-NH2 [Example 20]
readily water-soluble | Z-Arg-Arg-Pro-Phe-His-Sta-Lac-His-NH2 [Example 22]
